# Data from patent US20090318375A1, “Crystalline Azithromycin L-Malate Monohydrate and Pharmaceutical Composition Containing Same” (Hanmi Pharm Co., Ltd, priority 2003, published 2009).
# Where two headings read alike, the source gives them in different places.
# Columns and labels:
# [1] = Hygroscopicity of acid addition salts of azithromycin after storage; assay type: physicochemical; conditions: after 24 hours storage at 40° C. and 75% relative humidity
# [2] = Moisture uptake of malate anhydrates exposed at 40° C. and 75% relative humidity; assay type: physicochemical; conditions: exposed at 40° C. and 75% relative humidity for 10 hours
# Water-solubility test = assay type: physicochemical; conditions: thermodynamic from solid, 25° C., based on amount of azithromycin dissolved
# Protocol: The azithromycin L-malate monohydrate of the present invention and azithromycin dihydrate were dissolved in deionized water and in phosphoric acid buffer solution (pH 7) to saturation, respectively. The water-solubility of each of the saturated solutions was analyzed by HPLC according to the procedure described in the US Pharmacopoeia, to determine the amount of azithromycin dissolved.
# [3] = Non-hygroscopicity test (moisture content, Karl-Fisher titrator); assay type: physicochemical
# Protocol: The inventive azithromycin L-malate monohydrate was continuously exposed at 25 or 40° C. and 40 to 90% relative humidity for a period of over 15 days. The moisture contents of the inventive salt measured with a Karl-Fisher titrator at storage time 0, 3, 7 and 15 days are shown in Table 5 and FIG. 5.
# in vivo = conditions: beagle, dog, po, 20 mg/kg
# Protocol: (§1) Specifically, twelve Marshall beagle dogs (Beijing, average weight: 9.5±0.5 kg) were divided with two groups each consisting of six dogs. Each of divided dogs was fasted for 16 hours and then orally administered with a single 20 mg/kg dose of the inventive azithromycin L-malate monohydrate (test group) or azithromycin dihydrate (control group) contained in a gelatin capsule. After administration, blood samples were periodically collected, followed by separating plasma therefrom. The azithromycin samples extracted from the plasma was subjected to LC/MS/MS analysis to measure the amount of azithromycin therein and to calculate pharmacokinetic parameters.
# [4] = dog, in vivo, po, 20 mg/kg
# Protocol: as §1
# [5] = Heat stability test (remaining active azithromycin by HPLC); assay type: physicochemical; conditions: 60° C. and 75% relative humidity; for Amount of titrated azithromycin: sealed
# Protocol: The time-dependent stability at a high temperature of the inventive azithromycin L-malate monohydrate was measured and compared with that of the known azithromycin dihydrate.
# [6] = Pharmacokinetic test, azithromycin concentration in blood; conditions: beagle, dog, plasma, po, 20 mg/kg
# Protocol: as §1
# [7] = 37° C.; cited from earlier work
# [8] = deionized water, water, read-out: Solubility, deionized water
# [9] = phosphoric acid buffer solution, aqueous buffer, phosphoric acid buffer pH 7, read-out: Solubility, buffer solution (pH 7)
compound,measurement,setting,value
2-naphthalene sulfonic acid,Salt form (hygroscopicity),[1],"Crystalline, hygroscopic"
"CC[C@H]1OC(=O)[C@H](C)[C@@H](O[C@H]2C[C@@](C)(OC)[C@@H](O)[C@H](C)O2)[C@H](C)[C@@H](O[C@@H]2O[C@H](C)C[C@H](N(C)C)[C@H]2O)[C@](C)(O)C[C@@H](C)CN(C)[C@H](C)[C@@H](O)[C@]1(C)O.O=C(O)CC(O)C(=O)O (racemic) [DL-malate anhydrate, Azithromycin DL-Malate Anhydrate]",Moisture content increased to,[2],≥ 6%
same,Salt form (hygroscopicity),[1],"Crystalline, hygroscopic^e)"
"CC[C@H]1OC(=O)[C@H](C)[C@@H](O[C@H]2C[C@@](C)(OC)[C@@H](O)[C@H](C)O2)[C@H](C)[C@@H](O[C@@H]2O[C@H](C)C[C@H](N(C)C)[C@H]2O)[C@](C)(O)C[C@@H](C)CN(C)[C@H](C)[C@@H](O)[C@]1(C)O.O=C(O)C[C@H](O)C(=O)O [Azithromycin L-malate monohydrate, azithromycin L-malate monohydrate]",solubility,Water-solubility test; [8],393000 µg/mL
same,solubility,Water-solubility test; [9],392000 µg/mL
same,Salt form (hygroscopicity),[1],"Crystalline, non-hygroscopic^c)"
same,Hygroscopicity (in words),"[3]; 25 or 40° C., 40 to 90% relative humidity, 15 days",largely non-hygroscopic
same,Moisture content,"[3]; 40% relative humidity, 25° C., 3 days",1.78 wt %
same,Moisture content,"[3]; 40% relative humidity, 25° C., 7 days",1.75 wt %
same,Moisture content,"[3]; 40% relative humidity, 25° C., 15 days",1.73 wt %
same,Moisture content,"[3]; 40% relative humidity, 25° C., initial",1.75 wt %
same,Moisture content,"[3]; 60% relative humidity, 25° C., 3 days",1.82 wt %
same,Moisture content,"[3]; 60% relative humidity, 25° C., 7 days",1.80 wt %
same,Moisture content,"[3]; 60% relative humidity, 25° C., 15 days",1.80 wt %
same,Moisture content,"[3]; 60% relative humidity, 25° C., initial",1.75 wt %
same,Moisture content,"[3]; 75% relative humidity, 40° C., 3 days",1.80 wt %
same,Moisture content,"[3]; 75% relative humidity, 40° C., 7 days",1.82 wt %
same,Moisture content,"[3]; 75% relative humidity, 40° C., 15 days",1.85 wt %
same,Moisture content,"[3]; 75% relative humidity, 40° C., initial",1.75 wt %
same,Moisture content,"[3]; 90% relative humidity, 40° C., 3 days",1.87 wt %
same,Moisture content,"[3]; 90% relative humidity, 40° C., 7 days",1.85 wt %
same,Moisture content,"[3]; 90% relative humidity, 40° C., 15 days",1.85 wt %
same,Moisture content,"[3]; 90% relative humidity, 40° C., initial",1.75 wt %
same,Cmax,in vivo,3780 ± 1380 ng/mL
same,Tmax,in vivo,36 ± 12 min
same,AUC(0-t),in vivo; AUC0-24,27600 ± 6860 ng·h/mL
same,AUC(0-t),in vivo; AUC0-48,37300 ± 8830 ng·h/mL
same,"AUC0-24, T group/C group",[4],1.34
same,"AUC0-48, T group/C group",[4],1.34
same,Cmax compared with azithromycin dihydrate (in words),[4],about two times higher
same,"Cmax, T group/C group",[4],1.94
same,"Tmax, T group/C group",[4],0.75
same,Heat stability (in words),[5]; 28 days,highly stable
same,Amount of titrated azithromycin,[5]; 7 days,984.6 µg/mg
same,Amount of titrated azithromycin,[5]; 14 days,985.1 µg/mg
same,Amount of titrated azithromycin,[5]; 21 days,987.0 µg/mg
same,Amount of titrated azithromycin,[5]; 28 days,985.4 µg/mg
same,Amount of titrated azithromycin,[5]; initial,986.4 µg/mg
"CC[C@H]1OC(=O)[C@H](C)[C@@H](O[C@H]2C[C@@](C)(OC)[C@@H](O)[C@H](C)O2)[C@H](C)[C@@H](O[C@@H]2O[C@H](C)C[C@H](N(C)C)[C@H]2O)[C@](C)(O)C[C@@H](C)CN(C)[C@H](C)[C@@H](O)[C@]1(C)O [Azithromycin dihydrate, 9-deoxo-9a-aza-9a-methyl-9a-homoerythromycin A, reference compound]",solubility,Water-solubility test; [8],100 µg/mL
same,solubility,Water-solubility test; [9],5100 µg/mL
same,Tmax,[6],48 ± 18 min
same,Cmax,in vivo,1950 ± 710 ng/mL
same,AUC(0-t),in vivo; AUC0-24,20600 ± 6640 ng·h/mL
same,AUC(0-t),in vivo; AUC0-48,27900 ± 9710 ng·h/mL
same,Water-solubility,[7],1100 µg/mL
same,Heat stability (in words),[5]; 28 days,significant degradation
same,Amount of titrated azithromycin,[5]; 7 days,974.6 µg/mg
same,Amount of titrated azithromycin,[5]; 14 days,975.3 µg/mg
same,Amount of titrated azithromycin,[5]; 21 days,973.2 µg/mg
same,Amount of titrated azithromycin,[5]; 28 days,971.6 µg/mg
same,Amount of titrated azithromycin,[5]; initial,976.5 µg/mg
Br [Hydrobromic acid],Salt form (hygroscopicity),[1],"Amorphous, hygroscopic"
Cl [Hydrochloric acid],Salt form (hygroscopicity),[1],"Amorphous, hygroscopic"
O=C(O)[C@H](O)[C@@H](O)C(=O)O [L-Tartaric acid],Salt form (hygroscopicity),[1],"Crystalline, hygroscopic"
"CCC1OC(=O)C(C)C(OC2CC(C)(OC)C(O)C(C)O2)C(C)C(OC2OC(C)CC(N(C)C)C2O)C(C)(O)CC(C)CN(C)C(C)C(O)C1(C)O.O=C(O)CC(O)C(=O)O [L-malate anhydrate, Azithromycin L-Malate Anhydrate]",Increase of moisture content,[2],about 2.0%
same,Salt form (hygroscopicity),[1],"Crystalline, hygroscopic^d)"
O=S(=O)(O)O [Sulfuric acid],Salt form (hygroscopicity),[1],"Amorphous, hygroscopic"
Cc1ccc(S(=O)(=O)O)cc1 [p-toluene sulfonic acid],Salt form (hygroscopicity),[1],"Amorphous, hygroscopic"
Azithromycin D-Malate Anhydrate,Increase of moisture content,[2],≥ 8%
same,Salt form (hygroscopicity),[1],"Crystalline, hygroscopic^f)"
Citric acid,Salt form (hygroscopicity),[1],"Amorphous, hygroscopic"
Fumaric acid,Salt form (hygroscopicity),[1],"Crystalline, hygroscopic"
Maleic acid,Salt form (hygroscopicity),[1],"Amorphous, hygroscopic"
